Measurements as given in patent US6858383B2, “Compositions and methods for the treatment and prevention of cardiovascular diseases and disorders, and for identifying agents therapeutic therefor” (Medlyte, Inc., priority 2000, dated 2005).
One block for each molecule: values may come before it.

Experiments:
[1] = test system: isolated perfused rat heart; assay: Langendorff rat heart model of global ischemia and reperfusion; conditions: 0.1 mM gentamicin recirculated 30 min; 40 min global ischemia; 45 min reperfusion
Protocol: A rat model of ischemia and reperfusion was used to evaluate the therapeutic potential of a gentamicin, an amino glycoside that inhibits sphingomyelinase.
Gentamicin vehicle solution was prepared as follows. A stock solution of 0.1 M Gentamicin was prepared by adding 70 mg of Gentamicin Sulfate (Sigma, G1264) to 1 ml of KH Buffer. KH buffer (150 ml) was combined with 150 μl)l of the stock solution to yield a 0.1 mM solution.
The protocol used was essentially that described by Sakai et al. (A device for recording left ventricular contraction and electrocardiogram in nonworking isolated perfused rat heart, Jpn J Pharmacol 28:223-9, 1978), and Zelinski et al., (Phosphatidylcholine biosynthesis in isolated hamster heart, J Biol Chem. 255:11423-8, 1980) with the exception, in the latter instance, that rat studies were used in the experiments described herein instead of hamster hearts.
In brief, rats were anesthetized and their hearts were excised. The isolated hearts were cannulated and attached to Langendorff perfusion apparatus, and perfused with KH buffer. The hearts were allowed to stabilize for 5-10 min. […]
A small hole was cut in the left atrium of each animal to expose the mitral valve. […] Left ventricular pressure was measured and recorded using the MacLab program. […]
After about 45 min., the perfusate was turned off and the ventricular pressure was no longer recorded. […]

[2] = test system: cultured cardiomyocytes; assay: S-1-P applied to cultured cardiomyocytes: apoptosis and calcium deregulation; format: cell-based, rat; conditions: S-1-P treatment of cultured cardiomyocytes
Text: Exogenously applied […] is capable of activating blood platelets (Yatomi et al., J. Biol. Chem. 272:5291-5297, 1997; Yatomi et al., Blood 86:193-202, 1995). […] The first is to act on the platelets to promote the clotting response and further exacerbate the ischemia. Secondly, the platelet-derived […] acts in a paracrine fashion on neighboring endothelial and myocardial cells to promote calcium deregulation and apoptosis. On the cardiomyocytes, the consequence is to promote calcium overload. The endothelial cell response is to promote vasoconstriction and further limit the blood supply through the coronary vasculature. […] Extracellular […] is the ligand for a novel class of G protein-coupled receptors (GPCRs). Such receptors were first described as an orphan GPCRs cloned from human umbilical vein endothelial cells (Hla et al., J. Biol. Chem. 265:9308-9313, 1990; Lynch et al., Trends Pharmacol. Sci. 20:473-475, 1999). […] However, cardiac tissues are composed of diverse cell types, including endothelial cells, which have high levels of EDG-1 expression (Hla et al., J. Biol. Chem. 265:9308-9313, 1990). […] Recently a EDG-1 gene and its protein expression were determined in primary cultures of neonatal rat cardiomyocytes and in adult rat ventricular tissue (Nakajima et al., Biophysical J. 78:319 A, 2000). […]

[3] = Fate of 3H-SPH incubated in whole blood, TLC; format: in vitro ADME, human
Protocol: Experiments were carried out to determine the fate of any SPH that might be released from cells or platelets into the extracellular compartment. Whole blood samples were incubated in vitro for up to 15 hours with ^3H-SPH, followed by thin layer chromatography (TLC) to examine which, if any, of the known metabolic products of the sphingomyelin pathway were radiolabeled as a result of metabolism of radiolabeled SPH.

[4] = test system: cultured cardiomyocytes; conditions: S-1-P applied to cultured cardiomyocytes; cited from earlier work
[5] = target: tumor necrosis factor alpha (TNFα) released by cultured rat cardiomyocytes (rat) (UniProt P16599); assay: cell-based or functional assay
Sequence of tumor necrosis factor alpha (TNFα) released by cultured rat cardiomyocytes (rat) (P16599 80-235 limits assumed): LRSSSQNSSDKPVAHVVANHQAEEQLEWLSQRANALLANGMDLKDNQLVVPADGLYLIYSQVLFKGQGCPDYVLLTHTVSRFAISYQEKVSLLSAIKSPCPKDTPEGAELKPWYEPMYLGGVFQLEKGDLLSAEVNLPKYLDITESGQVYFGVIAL

[6] = test system: Adult rat cardiomyocytes; assay: Hypoxia-induced sphingosine (SPH) production/release in cultured cardiomyocytes, HPLC of extracted sphingolipids; format: cell-based
Protocol: Adult rat cardiomyocytes were subjected to hypoxic conditions as described above and assayed for their ability to produce sphingolipid bases involved in the sphingomyelin signal transduction cascade.
Cardiomyocytes were cultured on plastic dishes that were placed in a humidified modular incubator chamber (ICN Biomedicals, Aurora, Ohio) pressurized to 0.04-0.05 psi by the particular gas mixture used in the treatment. Warm (37° C.) Tyrode's solution containing 0.2 mM BSA, ampicillin ([…]), kanamycin (100 mg/mL) and fungizone (20 μg/mL) was gassed in a 50 mL sterile conical for 15 minutes with 95%N2/5% CO2 prior to adding the solution to the cultured cells. The pO2 was monitored by a Micro pO2 System oxygen electrode (Lasar Research Labs, Los Angeles, Calif.) and found to be 4.0 PPM for the duration of the hypoxia condition. […] The pH of control and experimental cell cultures was monitored with a micro pH electrode (Beetrode pH Electrodes, Sarasota, Fla.) and remained constant at pH=7.26+/−0.02 for normoxic cells and 7.15+/−0.03 for hypoxic cells throughout the experiment. […]
The HPLC analysis was performed using a Beckman (Fullerton, Calif.) System Gold 118 Solvent Module and 507e Autosampler. A Jasco (Easton, Md.) FP-920 Intelligent Fluorescence Detector was used with an excitation wavelength of 330 nm and emission wavelength of 455 nm. […]

Molecule: gentamicin
ischemia and reperfusion injury (left ventricular pressure) [1]: mitigated

stability in whole blood ([3]; 15-hour time course): very stable
Molecule: CCCCCCCCCCCCC/C=C/[C@@H](O)[C@@H](N)COP(=O)(O)O [S-1-P, sphingosine-1-phosphate]
average calcium level combining both diastolic and systolic responses [2]: significantly increased
apoptosis of cultured cardiomyocytes [4]: resulted in apoptosis

conversion to ceramide or sphingomyelin ([3]; whole blood in vitro, up to 15 hours): not converted
conversion of 3H-SPH to 3H-S-1-P ([3]; whole blood in vitro, within 20 minutes): 86%
Molecule: CCCCCCCCCCCCC/C=C/[C@@H](O)[C@@H](N)CO [^3H-SPH, D(+)-erythro-2-amino-4-trans-octadecene-1,3-diol]

Molecule: TNFRII:Fc receptor fragment (from UniProt P20333 23-257) (Fc fusion)
SPH release from hypoxic cardiomyocytes after pretreatment with TNFRII:Fc [5]: 3 fold

Molecule: C[N+](C)(C)C[C@H](O)CC(=O)[O-] [L-carnitine]
hypoxia-induced production of sphingosine ([6]; cellular model): blocks
amount of total SPH ([6]; pretreated 30 min prior to hypoxia (5 hours), TNFRII:Fc 0.5 ng/mL, L-carnitine 20 ng/mL, adult cardiomyocytes): significantly (p<0.01) reducing
